Data on six compounds can be found in patent publication US11197828B2, “Solid oral dosage form of lipophilic compounds” (SOLURAL PHARMA APS, priority 2014, dated 2021).

Marks after values point to notes of the source that are not given here.

For data set [1] the following is noted: cited from earlier work.
For data set [2] the following is noted: oral 60 mg paclitaxel equivalents/animal, fasted male beagle dogs (N = 4).
Protocol: (§1) The study was a randomized, balanced, single dose, parallel group study in Beagle dogs comparing pharmacokinetics in fasted state of capsules containing C11-paclitaxel and DHA-paclitaxel, respectively in SEDDS formulation S2 (see Table 1).
(§2) The strength of each capsule was 12.5 mg of paclitaxel equivalents for the C-11 paclitaxel capsule and 10 mg of paclitaxel equivalents for the DHA-paclitaxel. The total oral dosage provided was 75 mg calculated as parent compound for paclitaxel and C11-paclitaxel, respectively and 60 mg calculated as parent compound for DHA-paclitaxel.
(§3) The dogs were deprived of food from late afternoon the day prior dosing. The capsule was put directly on the aditus laryngis of the dog to ensure that the capsule is not chewed but swallowed whole. All dogs received totally 100 ml of water immediately following the dosing.
(§4) Blood samples (approximately ˜0.5 mL) were taken from each animal at each dosing occasion on 10 time points up to 24 hours after dosing including a pre-dose.
(§5) The pharmacokinetic parameters calculated are i.e. total exposure, or area under the concentration-time curve (AUC0-inf, AUC0-t), peak exposure (Cmax), time to peak exposure (Tmax), terminal half-life t1/2 and the conversion rate from prodrug to parent.
A further data set is described as follows: in vivo. As to conditions: male, beagle, dog, blood, po, 75 mg.
For data set [3] the following is noted: excessive first pass metabolism; cited from earlier work.

Protocol for in vivo: as §1, §2, §3, §4, §5

Take `CC(=O)O[C@H]1CC[C@@]2(C)C(=CC[C@@H]3[C@@H]2CC[C@]2(C)C(c4cccnc4)=CC[C@@H]32)C1` [Abiraterone acetate]: the log P – broadly, a log measure of how a compound divides between an organic and an aqueous phase – in data set [1] is reported as 5.1.
As to `C[C@@H](O)[C@@H]1NC(=O)[C@H](CCCCN)NC(=O)[C@@H](Cc2c[nH]c3ccccc23)NC(=O)[C@H](Cc2ccccc2)NC(=O)[C@@H](NC(=O)[C@H](N)Cc2ccccc2)CSSC[C@@H](C(=O)N[C@H](CO)[C@@H](C)O)NC1=O` [Octreotide], the log partition coefficient (log P) in data set [1] was “around 1”.
Turning to `CC/C=C\C/C=C\C/C=C\C/C=C\C/C=C\C/C=C\CCC(=O)O[C@@H](C(=O)O[C@H]1C[C@@]2(O)[C@@H](OC(=O)c3ccccc3)[C@@H]3[C@]4(OC(C)=O)CO[C@@H]4C[C@H](O)[C@@]3(C)C(=O)[C@H](OC(C)=O)C(=C1C)C2(C)C)[C@@H](NC(=O)c1ccccc1)c1ccccc1` [Paclitaxel-DHA, paclitaxel docosahexaenoate], the “AUC0-t(parent)/AUC0-t(prodrug)” value in data set [2] (conversion prodrug to parent) stood at 22.3%. Also, in data set [2], the “AUC0-t of paclitaxel (parent)” value amounted to 73.3 ng·h/mL, the AUC0-t of prodrug is 402^e) hr * ng/mL, the “AUC0-∞ of paclitaxel (parent)” value was determined as 97.2 ng·h/mL and the “AUC0-∞ of prodrug” value is on record as 643^f) hr * ng/mL. For the same compound, in data set [2], the “Cmax of paclitaxel (parent)” value was 10.4 ng/mL, the Cmax of prodrug is given as 63.8^d) ng/mL, the “Tmax of paclitaxel (parent)” value is 2.25 h and the Tmax of prodrug turned out to be 4.50 h. Moreover, in data set [2], the “t1/2 of paclitaxel (parent)” value is 11.6 h and the t1/2 of prodrug turned out to be 6.33 h.
In the case of `CC(=O)O[C@H]1C(=O)[C@@]2(C)[C@H]([C@H](OC(=O)c3ccccc3)[C@]3(O)C[C@H](OC(=O)[C@H](O)[C@@H](NC(=O)c4ccccc4)c4ccccc4)C(C)=C1C3(C)C)[C@]1(OC(C)=O)CO[C@@H]1C[C@@H]2O` [Paclitaxel], in “in vivo”, the total exposure AUC(0-inf) – broadly, total exposure, with the tail of the curve extrapolated – turned out to be 973 ng·h/mL; the AUC(0-t) (as a rule, the area under the concentration-time curve up to a stated or last time point) was determined as 771 ng·h/mL; the Cmax (commonly the highest concentration seen after dosing) came to 148 ng/mL; the Tmax (as a rule, the time from dosing to the highest level) was 2.5 h. Besides, the half-life (in general, how long it takes for the measured level to halve) in “in vivo” was 822 min.
As for `CCCCCCCCCCC(=O)O[C@H]1CC[C@H]2[C@@H]3CCC4=CC(=O)CC[C@]4(C)[C@H]3CC[C@]12C` [Testosterone undecanoate], the log partition coefficient (log P) in data set [1] was “about 8.7”.
Turning to `CC(C)c1cccc(C(C)C)c1O` [propofol, 2,6-diisopropylphenol], the oral bioavailability in data set [3] is no more than 3%.
